Test results reported in US10000454B2, “Antidiabetic tricyclic compounds” (Merck Sharp & Dohme Corp., priority 2014, dated 2018).

Legend:
Human GPR40 [1] = molecular target: T1, Human GPR40 (Homo sapiens, UniProt O14842); assay: FLIPR assay, agonist-induced calcium mobilization; assay type: cell-based; design: expressed in transfected cells; conditions: GPR40/CHO NFAT BLA cells
Summary of the method: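 CHO NFAT-BLA cells stably expressing human GPR40 were loaded 100 min at room temperature with buffer (HMS, 0.1% BSA, 20 mM HEPES, 2.5 mM probenecid, pH 7.4) containing 8 μM fluo-4 AM. The agonist-induced calcium rise after compound addition was read as FLIPR fluorescence.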

Human GPR40 [2] = molecular target: T1, Human GPR40; assay: Inositol Phosphate Turnover (IP1) Assay; assay type: cell-based; design: expressed in transfected cells; host or cells: HEK cells (stably expressing the aequorin reporter); conditions: HEK cells stably expressing human GPR40, CisBio IP-One kit
Summary of the method: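 HEK cells stably expressing human GPR40, plated 15,000 per well and incubated 16 h, then exposed to compound for 60 min at 37 degrees in stimulation buffer. IP1 measured by HTRF (IP-One) as 665/620 nm ratio, converted to IP1 concentration via a standard curve.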

T1 sequence (O14842 whole entry): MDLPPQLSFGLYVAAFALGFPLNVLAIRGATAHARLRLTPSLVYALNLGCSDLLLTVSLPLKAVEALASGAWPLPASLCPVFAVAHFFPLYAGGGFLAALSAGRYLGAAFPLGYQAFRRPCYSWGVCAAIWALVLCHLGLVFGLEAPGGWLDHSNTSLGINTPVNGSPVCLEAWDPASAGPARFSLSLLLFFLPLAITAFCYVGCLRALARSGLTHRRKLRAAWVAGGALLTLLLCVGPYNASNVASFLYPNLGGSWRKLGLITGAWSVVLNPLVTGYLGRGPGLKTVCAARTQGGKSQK

SMILES | EC50 (Human GPR40 [1]) [nM] | EC50 (Human GPR40 [2]) [nM]
CC1(C)CC(=O)N(c2ccccc2C(F)(F)F)c2cc(COc3cc4c(cn3)[C@H]3[C@@H](C4)[C@@H]3C(=O)O)c(F)cc21 [Example 54, (5aR,6S,6aS)-3-((6-fluoro-4,4-dimethyl-2-oxo-1-(2-(trifluoromethyl)phenyl)-1,2,3,4-tetrahydroquinolin-7-yl)methoxy)-5,5a,6,6a-tetrahydrocyclopropa[4,5] cyclopenta[1,2-c]pyridine-6-carboxylic acid] | 44.9 | 562
CC1(C)CCC(c2ccccc2C(F)(F)F)c2cc(COc3cc4c(cn3)[C@H]3[C@@H](C4)[C@@H]3C(=O)O)c(F)cc21 (stereo partly drawn) [Example 55, (5aR,6S,6aS)-3-((3-fluoro-5,5-dimethyl-8-(2-(trifluoromethyl)phenyl)-5,6,7,8-tetrahydronaphthalen-2-yl)methoxy)-5,5a,6,6a-tetrahydrocyclopropa[4,5]cyclopenta[1,2-c]pyridine-6-carboxylic acid] | 63.7 | 70.2
O=C(O)[C@H]1[C@@H]2Cc3cc(OCc4ccc5c(c4)N(c4ccccc4)CCO5)ncc3[C@@H]21 [Example 61, (5aR,6S,6aS)-3-((4-phenyl-3,4-dihydro-2H-benzo[b][1,4]oxazin-6-yl)methoxy)-5,5a,6,6a-tetrahydrocyclopropa[4,5]cyclopenta[1,2-c]pyridine-6-carboxylic acid] | 40.5 | 653
O=C(O)[C@H]1[C@@H]2Cc3cc(OCc4ccc5c(c4)N(c4ccccc4)CCCC5)ncc3[C@@H]21 [Example 62, (5aR,6S,6aS)-3-((1-phenyl-2,3,4,5-tetrahydro-1H-benzo[b]azepin-8-yl)methoxy)-5,5a,6,6a-tetrahydrocyclopropa[4,5]cyclopenta[1,2-c]pyridine-6-carboxylic acid] | 14.6 | 42.9
O=C(O)[C@H]1[C@@H]2Cc3cc(OCc4ccc5c(c4)N(c4ccccc4)CCC5)ccc3[C@@H]21 [Example 66, (1S,1aS,6aR)-4-((1-phenyl-1,2,3,4-tetrahydroquinolin-7-yl)methoxy)-1,1a,6,6a-tetrahydrocyclopropa[a]indene-1-carboxylic acid] | 9.77 | 72.6
O=C(O)[C@H]1[C@@H]2Cc3cc(OCc4ccc5c(c4)N(c4ccccn4)CCC5)ccc3[C@@H]21 [Example 67, (1S,1aS,6aR)-4-((1-(pyridin-2-yl)-1,2,3,4-tetrahydroquinolin-7-yl)methoxy)-1,1a,6,6a-tetrahydrocyclopropa[a] indene-1-carboxylic acid] | 28.9 | 169
Cc1ccccc1N1CCCc2ccc(COc3ccc4c(c3)C[C@H]3[C@H](C(=O)O)[C@@H]43)cc21 [Example 68, (1S,1aS,6aR)-4-((1-(o-tolyl)-1,2,3,4-tetrahydroquinolin-7-yl)methoxy)-1,1a,6,6a-tetrahydrocyclopropa[a] indene-1-carboxylic acid] | 24.7 | 64.9
Cn1cnc2c([C@H]3CC(C)(C)c4ccc(COc5cc6c(cn5)[C@H]5[C@@H](C6)[C@@H]5C(=O)O)cc43)cccc21 [Example 71] | 13.3 | 205
CN1CC(C)(C)c2cc(F)c(COc3cc4c(cn3)[C@H]3[C@@H](C4)[C@@H]3C(=O)O)cc2[C@H]1c1ccccc1C(F)(F)F [Example 73, (5aR,6S,6aS)-3-(((S)-6-fluoro-2,4,4-trimethyl-1-(2-(trifluoromethyl)phenyl)-1,2,3,4-tetrahydroisoquinolin-7-yl)methoxy)-5,5a,6,6a-tetrahydrocyclopropa[4,5]cyclopenta[1,2-c]pyridine-6-carboxylic acid] | 18.6 | 21.1
CC1(C)CNC(c2ccccc2C(F)(F)F)c2c1ccc(COc1cc3c(cn1)[C@H]1[C@@H](C3)[C@@H]1C(=O)O)c2F (stereo partly drawn) [Example 74, (5aR,6S,6aS)-3-((8-fluoro-4,4-dimethyl-1-(2-(trifluoromethyl)phenyl)-1,2,3,4-tetrahydroisoquinolin-7-yl)methoxy)-5,5a,6,6a-tetrahydrocyclopropa[4,5]cyclopenta[1,2-c]pyridine-6-carboxylic acid] | 6.75 | 4.99
